Patent publication US20230183243A1, “HETEROARYL DERIVATIVES AND PHARMACEUTICAL COMPOSITION COMPRISING SAME AS ACTIVE INGREDIENT” (VORONOI INC., priority 2019, published 2023)

How the values were obtained:
MDA-MB-231 cells = experiment: Inhibition of proliferation of triple-negative breast cancer cells, CellTiter-Glo; format: cell-based; details: Homo sapiens, 120 h; MDA-MB-231, cultured for 5 days
How it was run: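 MDA-MB-231 cells pre-cultured 24 h (5% CO2, 37 °C), then exposed to compound for 5 days at 12 three-fold dilutions, final 10 μM to 0.05 nM. Viability read by CellTiter-Glo luminescence after 10 min at 37 °C; growth inhibition calculated relative to untreated solvent-control cells.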

SHP-77 = experiment: Inhibition of proliferation of small cell lung cancer cells, CellTiter-Glo; format: cell-based; details: Homo sapiens, SHP77, 120 h; SHP-77, cultured for 5 days
Method: Specifically, the following test was performed to evaluate the inhibitory activity of the compound according to the present invention against the cell proliferation in the SCLC cells.
To check an inhibitory ability of cell growth in one SCLC cell line, a test was performed as follows. Cells were seeded in 180 μL of a culture broth at a density of 2,000 to 3,000 cells/well in a white clear bottom 96-well plate (Corning) according to the growth ability of each cell, and then cultured for 24 hours under conditions of 5% CO2 and 37° C. Thereafter, the compound was prepared by diluting a 10 mM stock solution three-fold with 100% DMSO at a total of 12 concentrations so that a peak concentration of the compound was in a range of 10 mM to 0.05 μM, and the diluted compound was then diluted in each cell culture medium so that a final concentration of the compound was in a range of 100 μM to 0.5 nM. 20 μL of a diluted solution diluted with a medium was added to the cell solution in which cells were seeded in the 96-well plate on the previous day so that a final concentration of the diluted solution was in a range of 10 μM to 0.05 nM. Each of the cells was cultured for 5 days. To check cell viability, a mixture provided in aCellTiter-Glo® Luminescent Cell Viability Assay Kit (Promega) was added to each of the cultured cell media, and cultured for another 10 minutes under a condition of 37° C. Then, a degree of luminescence (fluorescence) was measured. A degree of inhibition of the cell growth according to the treatment concentration of each of the compounds was calculated based on the fluorescence of the solvent control cells which were not treated with the compound. In this case, the concentration of each of the compounds inhibiting 50% of the cell growth was determined to be a GI50 (nM) value, and calculated using Prism (Version 7.01; GraphPad) software.

TTK = target: T1, TTK (Homo sapiens, UniProt P33981); experiment: TTK enzyme activity, ADP-Glo kinase assay; format: biochemical; parameters: purchased SignalChem T20-10G; details: purified human TTK, ATP 10 μM, 25° C., 2 hours
T1 sequence (P33981 1-857): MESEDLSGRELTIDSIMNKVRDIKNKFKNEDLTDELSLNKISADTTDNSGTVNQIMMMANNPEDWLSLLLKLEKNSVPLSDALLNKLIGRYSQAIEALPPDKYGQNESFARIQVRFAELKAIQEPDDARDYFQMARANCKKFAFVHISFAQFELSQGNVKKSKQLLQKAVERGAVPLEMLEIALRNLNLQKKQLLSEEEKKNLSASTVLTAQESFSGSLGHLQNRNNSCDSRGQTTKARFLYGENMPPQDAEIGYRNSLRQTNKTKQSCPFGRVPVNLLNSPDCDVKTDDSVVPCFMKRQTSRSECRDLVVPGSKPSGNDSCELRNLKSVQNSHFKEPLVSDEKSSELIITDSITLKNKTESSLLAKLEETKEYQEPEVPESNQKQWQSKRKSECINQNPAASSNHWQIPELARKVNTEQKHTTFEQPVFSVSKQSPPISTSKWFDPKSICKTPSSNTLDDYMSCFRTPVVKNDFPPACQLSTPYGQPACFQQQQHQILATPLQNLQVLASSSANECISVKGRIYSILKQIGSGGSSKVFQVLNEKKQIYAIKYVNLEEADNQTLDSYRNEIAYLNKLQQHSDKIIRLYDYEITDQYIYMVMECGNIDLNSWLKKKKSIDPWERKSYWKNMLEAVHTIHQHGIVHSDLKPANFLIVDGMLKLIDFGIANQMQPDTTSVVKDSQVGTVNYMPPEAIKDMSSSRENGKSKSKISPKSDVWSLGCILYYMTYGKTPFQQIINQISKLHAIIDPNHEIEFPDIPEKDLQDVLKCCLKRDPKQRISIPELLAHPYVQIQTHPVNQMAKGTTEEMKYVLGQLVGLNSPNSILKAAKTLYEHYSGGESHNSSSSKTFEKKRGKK
How it was run: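 ADP-Glo read-out; percent inhibition at each compound concentration was relative to the solvent-only control. The reactions contained 25 ng enzyme, 0.2 μg substrate and 10 μM ATP in 40 mM Tris-HCl pH 7.4 with 20 mM MgCl2, 0.5 mg/mL BSA and 50 μM DTT, and ran 2 h at 25 °C.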

| GI50 (MDA-MB-231 cells) [nM] | GI50 (SHP-77) [nM] | IC50 (TTK) [nM] | Compound |
| --- | --- | --- | --- |
| < 100 | < 100 | < 50 | Cn1nccc1-c1ccc(Nc2nc(NC3CCCC3)c3c(C#N)c[nH]c3n2)c2c1OCCO2 [Example 38, 4-(cyclopentylamino)-2-((8-(1-methyl-1H-pyrazol-5-yl)-2,3-dihydrobenzo[b][1,4]dioxin-5-yl)amino)-7H-pyrrolo[2,3-d] pyrimidine-5-carbonitrile] |
| 100 to 1000 | < 100 | 200 to 1000 | COc1cc(Nc2nc(NC3CCCC3)c3c(C#N)c[nH]c3n2)ccc1-c1c(C)noc1C [Example 139, 4-(cyclopentylamino)-2-((4-(3,5-dimethylisoxazol-4-yl)-3-methoxyphenyl)amino)-7H-pyrrolo[2,3-d] pyrimidine-5-carbonitrile] |
| 100 to 1000 | 100 to 1000 | 50 to 200 | COc1cc(Nc2nc(NC3CCCC3)c3c(C#N)c[nH]c3n2)ccc1-c1ccnn1C [Example 120, 4-(cyclopentylamino)-2-((3-methoxy-4-(1-methyl-1H-pyrazol-5-yl)phenyl)amino)-7H-pyrrolo[2,3-d] pyrimidine-5-carbonitrile] |
| < 100 | < 100 | < 50 | COc1cc(N2CCCS2(=O)=O)ccc1Nc1nc(NC2CCCC2)c2c(C#N)c[nH]c2n1 [Example 157, 4-(cyclopentylamino)-2-((4-(1,1-dioxidoisothiazolidin-2-yl)-2-methoxyphenyl)amino)-7H-pyrrolo[2,3-d] pyrimidine-5-carbonitrile] |
| < 100 | < 100 | < 50 | N#Cc1c[nH]c2nc(Nc3ccc(N4CCCCS4(=O)=O)cc3)nc(NC3CCCC3)c12 [Example 156, 4-(cyclopentylamino)-2-((4-(1,1-dioxido-1,2-thiazinan-2-yl)phenyl)amino)-7H-pyrrolo[2,3-d] pyrimidine-5-carbonitrile] |
| 100 to 1000 | 100 to 1000 | 50 to 200 | COc1cc(-c2ccnn2C)ccc1Nc1nc(NC2CCCC2)c2cc[nH]c2n1 [Example 113, N^4-cyclopentyl-N^2-(2-methoxy-4-(1-methyl-1H-pyrazol-5-yl)phenyl)-7H-pyrrolo[2,3-d] pyrimidine-2,4-diamine] |
| < 100 | < 100 | < 50 | Cn1nccc1-c1ccc(Nc2nc(NC3CCC(F)(F)C3)c3c(C#N)c[nH]c3n2)c2c1OCCO2 (stereo not drawn) [Example 116, 4-((3,3-difluorocyclopentyl)amino)-2-((8-(1-methyl-1H-pyrazol-5-yl)-2,3-dihydrobenzo[b][1,4]dioxin-5-yl)amino)-7H-pyrrolo[2,3-d] pyrimidine-5-carbonitrile] |

Continued, compound first:

| Compound | GI50 (MDA-MB-231 cells) [nM] | GI50 (SHP-77) [nM] | IC50 (TTK) [nM] |
| --- | --- | --- | --- |
| N#Cc1c[nH]c2nc(Nc3ccc(N4CCCCS4(=O)=O)c(F)c3)nc(NC3CCOCC3)c12 [Example 58, 2-((4-(1,1-dioxido-1,2-thiazinan-2-yl)-3-fluorophenyl)amino)-4-((tetrahydro-2H-pyran-4-yl)amino)-7H-pyrrolo[2,3-d] pyrimidine-5-carbonitrile] | < 100 | < 100 | < 50 |
| COc1cc(-c2ccnn2C)ccc1Nc1cc(NC2CCCC2)c2c(C#N)c[nH]c2n1 [Example 87, 4-(cyclopentylamino)-6-((2-methoxy-4-(l-methyl-1H-pyrazol-5-yl)phenyl)amino)-1H-pyrrolo[2,3-b] pyridine-3-carbonitrile] | < 100 | < 100 | 50 to 200 |
| CC1(C)CC(Nc2nc(Nc3cccc4c3OCCO4)nc3[nH]cc(C#N)c23)CCO1 (stereo not drawn) [Example 171] | < 100 | < 100 | < 50 |
| COc1cc(-c2nncn2C)ccc1Nc1nc(NC2CCOC(C)(C)C2)c2c(C#N)c[nH]c2n1 (stereo not drawn) [Example 143, 4-((2,2-dimethyltetrahydro-2H-pyran-4-yl)amino)-2-((2-methoxy-4-(4-methyl-4H-1,2,4-triazol-3-yl)phenyl)amino)-7H-pyrrolo[2,3-d] pyrimidine-5-carbonitrile] | < 100 | < 100 | < 50 |
| N#Cc1c[nH]c2nc(Nc3ccc(N4CCCS4(=O)=O)cc3)nc(NC3CCCC3)c12 [Example 158, 4-(cyclopentylamino)-2-((4-(1,1-dioxidoisothiazolidin-2-yl)phenyl)amino)-7H-pyrrolo[2,3-d] pyrimidine-5-carbonitrile] | < 100 | < 100 | < 50 |
| Cn1nccc1-c1ccc(Nc2nc(NC3CC3)c3c(C#N)c[nH]c3n2)c2c1OCCO2 [Example 99, 4-(cyclopropylamino)-2-((8-(1-methyl-1H-pyrazol-5-yl)-2,3-dihydrobenzo[b][1,4]dioxin-5-yl)amino)-7H-pyrrolo[2,3-d] pyrimidine-5-carbonitrile] | < 100 | < 100 | < 50 |
| COc1cc(-c2nncn2C)ccc1Nc1nc(NC2CCOCC2)c2c(C(F)(F)F)c[nH]c2n1 [Example 117, N^2-(2-methoxy-4-(4-methyl-4H-1,2,4-triazol-3-yl)phenyl)-N^4-(tetrahydro-2H-pyran-4-yl)-5-(trifluoromethyl)-7H-pyrrolo[2,3-d] pyrimidine-2,4-diamine] | < 100 | < 100 | < 50 |
| COc1cc(Nc2nc(NC3CCCCC3)c3c(C#N)c[nH]c3n2)ccc1-c1ccnn1C [Example 121, 4-(cyclohexylamino)-2-((3-methoxy-4-(1-methyl-1H-pyrazol-5-yl)phenyl)amino)-7H-pyrrolo[2,3-d] pyrimidine-5-carbonitrile] | < 100 | < 100 | < 50 |
| COC[C@@H](C)Nc1nc(Nc2ccc(-n3ccnc3C)cc2OC)nc2[nH]cc(C#N)c12 [Example 167, (R)-2-((2-methoxy-4-(2-methyl-1H-imidazol-1-yl)phenyl)amino)-4-((1-methoxypropan-2-yl)amino)-7H-pyrrolo[2,3-d] pyrimidine-5-carbonitrile] | < 100 | < 100 | < 50 |
| COc1cc(-c2cnn(C)c2)ccc1Nc1nc(NC2CCOCC2)c2c(C(F)(F)F)c[nH]c2n1 [Example 118, N^2-(2-methoxy-4-(1-methyl-1H-pyrazol-4-yl)phenyl)-N^4-(tetrahydro-2H-pyran-4-yl)-5-(trifluoromethy1)-7H-pyrrolo[2,3-d] pyrimidine-2,4-diamine] | < 100 | < 100 | < 50 |
| COc1cc(N2CCCCS2(=O)=O)ccc1Nc1nc(NC2CCOCC2)c2c(C(F)(F)F)c[nH]c2n1 [Example 175, 2-(3-methoxy-4-((4-((tetrahydro-2H-pyran-4-yl)amino)-5-(trifluoromethyl)-7H-pyrrolo[2,3-d]pyrimidin-2-yl)amino)phenyl)-1,2-thiazinane 1,1-dioxide] | < 100 | < 100 | < 50 |
| COc1cc(-c2c(C)noc2C)ccc1Nc1nc(NC2CCOCC2)c2c(C(F)(F)F)c[nH]c2n1 [Example 131, N^2-(4-(3,5-dimethylisoxazol-4-yl)-2-methoxyphenyl)-N^4-(tetrahydro-2H-pyran-4-yl)-5-(trifluoromethyl)-7H-pyrrolo[2,3-d] pyrimidine-2,4-diamine] | < 100 | < 100 | 50 to 200 |
